Measured values from patent publication US20110039787A1, “COMPOSITIONS, KITS AND METHODS FOR TREATING BENIGN PROSTATE HYPERPLASIA” (priority 2009, published 2011).
Square brackets hold non-standard residues; d marks the D form. Peptide text beside a SMILES is read from it. * marks the point of attachment. dPhe(4-NHCONH2) = NC(=O)Nc1ccc(C[C@@H](N)C(=O)O)cc1; Dihydroorotyl(S) = O=C1C[C@@H](C(=O)*)NC(=O)N1; dPhe(4-Cl) = N[C@H](Cc1ccc(Cl)cc1)C(=O)O; Phe(4-NH2) = Nc1ccc(C[C@H](N)C(=O)O)cc1; d2Nal = N[C@H](Cc1ccc2ccccc2c1)C(=O)O; Lys(iPr) = CC(C)NCCCC[C@H](N)C(=O)O; d3Pal = N[C@H](Cc1cccnc1)C(=O)O

Experiments:
men with BPH [1] = assay: IPSS questionnaire (sum of scores), clinical trial in BPH patients; format: in vivo
Experimental: (§1) For each patient, the following parameters were measured or assessed (using the methods discussed below), at time points of screening day 0 (e.g., −7 days, “baseline”), day 14, day 28, and day 42:
(§2) After the initial 6-week treatment period of the exploratory study had been completed, a 12-month follow-up period looking at long-term efficacy commenced. Interim data of the main efficacy variables (IPSS, IPSS Global QoL, prostate volume, urinary flow, and post-void residual volume—measured as set out below) after 6 months' follow-up are also presented herein at Tables 1, 2, 3, and FIG. 1b. FIG. 1b also includes IPSS data at 9 and 12 months.
The IPSS was developed in 1991 by the American Urological Association to assess the severity of urinary symptoms related to BPH (Barry, M. J., et al., The American Urological Association symptom index for benign prostatic hyperplasia. The Measurement Committee of the American Urological Association. J Urol, 1992. 148(5): p. 1549-57; discussion 1564). The IPSS has been widely used in clinical studies, has undergone extensive validation, and its psychometric properties are well documented in both the original version (containing a 1-month recall) as well as the ‘acute’ version used in this study (containing a one-week recall). The WHO recommended the use of this instrument for the evaluation of BPH, and it is considered to be the internationally accepted, standard questionnaire for assessing lower urinary tract symptoms.
The patients completed the IPSS questionnaire to evaluate their urinary symptoms. The IPSS is a patient-administered questionnaire containing seven items to evaluate symptoms of urinary obstruction (i.e., incomplete emptying, frequency, hesitancy, urgency, weak stream, straining, nocturia) over the preceding week. Each urinary symptom question is assigned points from 0 to 5 indicating increasing severity of the particular symptom. The total score can therefore range from 0 to 35 (0-7: mildly symptomatic; 8-19: moderately symptomatic; 20-35: severely symptomatic). A reduction in total score over the treatment period is indicative of prostate symptom improvement.

prostate volume = assay: Prostate volume by transrectal ultrasound; format: in vivo, men
Experimental: as §1
2) Efficacy Endpoints—the measured Peak Urinary Flow, Post-void Residual Volume, and Prostate Volume.
as §2
The prostate volume was measured by transrectal ultrasound with the patient in a lateral position. The prostatic gland was sonicated from two directions perpendicular to one another resulting in three cursor positions set by the urologist. The volume was calculated automatically. The investigations were performed by urologists by methods known in the art.

men with BPH [2] = details: in vivo
Experimental: The study population was men with BPH with: a prostate volume larger than 30 mL, a maximal uroflow of 12 mL/s (with some exceptions), an IPSS score of at least 13, serum prostatic specific antigen (PSA) below 10 ng/mL, and no evidence of prostate cancer. Altogether, 52 patients with BPH were randomly assigned to four parallel groups of 13 patients each.
The patients were randomly allocated to receive either: one injection of 64 mg degarelix on Day 0 (hereinafter termed “64 mg”); one injection of 32 mg degarelix on Day 0 and one on Day 14 (hereinafter termed “32+32 mg”); one injection of 32 mg degarelix on Day 0 (hereinafter termed “32 mg”); or one injection of 16 mg degarelix on Day 0 and one on Day 14 (hereinafter termed “16+16 mg”).
In order to evaluate the effects of degarelix on urinary morbidity, sexual function and overall quality of life (QoL) due to urinary condition, patient reported questionnaires (IPSS, IIEF, and IPSS-global QoL) were used. The questionnaires were answered by the patient at the clinic visits, in line with standard procedures.
The IIEF questionnaire evaluated sexual dysfunction associated with treatment. […] Question numbers one to ten are scored on a six-point scale from zero ('No sexual activity') to five (Almost always to always'). Question numbers 11-15 are scored on a five-point scale from one (Almost never or never') to five (Almost always to always'). […]

[3] = 16+16 mg, Month 6 follow up, n=6
[4] = 32+32 mg, Month 6 follow up, n=7
[5] = all treatment groups (50 patients), Day 42
[6] = 16+16 mg, Month 6 follow-up, n=6
[7] = 32+32 mg, Month 6 follow-up, n=7

- Change of IIEF scores (men with BPH [2]): mild decrease
SMILES: CC(=O)N[C@H](Cc1ccc2ccccc2c1)C(=O)N[C@H](Cc1ccc(Cl)cc1)C(=O)N[C@H](Cc1cccnc1)C(=O)N[C@@H](CO)C(=O)N[C@@H](Cc1ccc(NC(=O)[C@@H]2CC(=O)NC(=O)N2)cc1)C(=O)N[C@H](Cc1ccc(NC(N)=O)cc1)C(=O)N[C@@H](CC(C)C)C(=O)N[C@@H](CCCCNC(C)C)C(=O)N1CCC[C@H]1C(=O)N[C@H](C)C(N)=O [Degarelix, D-Alaninamide, N-acetyl-3-(2-naphthalenyl)-D-alanyl-4-chloro-D-phenylalanyl-3-(3-pyridinyl)-D-alanyl-L-seryl-4-[[[(4S)-hexahydro-2,6-dioxo-4-pyrimidinyl]carbonyl]amino]-L-phenylalanyl-4-[(aminocarbonyl)amino]-D-phenylalanyl-L leucyl-N6-(1-methylethyl)-L-lysyl-L-prolyl] (Ac-[d2Nal][dPhe(4-Cl)][d3Pal]S[Phe(4-NH2)](Dihydroorotyl(S))[dPhe(4-NHCONH2)]L[Lys(iPr)]P[dA]-NH2)
- Percentage responders (decrease in IPSS of at least 30% as compared to baseline) (men with BPH [1]; 16+16 mg, Day 42): 54%
- Mean IPSS score, mean (SD) (men with BPH [1]; 16+16 mg, Day 42, N=13): 11.6 (4.5)
- Mean change from baseline in IPSS score, mean (SD) (men with BPH [1]; 16+16 mg, Day 42, N=13): −6.1 (4.6)
- Mean change from baseline in IPSS score, mean (SD) (men with BPH [1]; 16+16 mg, Day 42, N=13, listed as degarelix): −6.1
- Mean IPSS score, mean (SD) (men with BPH [1]; [3]): 16.3 (4.7)
- Mean change from baseline in IPSS score, mean (SD) (men with BPH [1]; [3]): −2.5 (4.3)
- Percentage responders (decrease in IPSS of at least 30% as compared to baseline) (men with BPH [1]; [3]): 33%
- Mean change from baseline in IPSS score, mean (SD) (men with BPH [1]; 32+32 mg s.c. (Day 0 + Day 14), Day 14, N=12): −5.5 (5.0)
- Percentage responders (decrease in IPSS of at least 30% as compared to baseline) (men with BPH [1]; 32+32 mg, Day 42): 83%
- Mean IPSS score, mean (SD) (men with BPH [1]; 32+32 mg, Day 42, N=12): 8.6 (5.7)
- Mean change from baseline in IPSS score, mean (SD) (men with BPH [1]; 32+32 mg, Day 42, N=12): −9.6 (4.7)
- Mean change from baseline in IPSS score, mean (SD) (men with BPH [1]; 32+32 mg, Day 42, N=12, listed as degarelix): −9.6
- Mean IPSS score, mean (SD) (men with BPH [1]; [4]): 6.7 (4.5)
- Mean change from baseline in IPSS score, mean (SD) (men with BPH [1]; [4]): −12.6 (9.6)
- Percentage responders (decrease in IPSS of at least 30% as compared to baseline) (men with BPH [1]; [4]): 86%
- Number of patients categorised as "mild" (IPSS 0-7) (men with BPH [1]; [5]): 17 patients
- Number of patients categorised as "moderate" (IPSS 8-19) (men with BPH [1]; [5]): 31 patients
- Number of patients categorised as "severe" (IPSS 20-35) (men with BPH [1]; [5]): 2 patients
- Mean (SD) Prostate Volume (prostate volume; 32 mg, Day 42, N=12): 34.8 (14.2) mL
- Prostate Volume, Change from Baseline, mean (SD) (prostate volume; 32 mg, Day 42, N=12): −13.9 (14.7) mL
- Prostate Volume, Percentage Change from Baseline, mean (SD) (prostate volume; 32 mg, Day 42, N=12): −25.1 (18.0) %
- Mean (SD) Prostate Volume (prostate volume; 32 mg, Month 6 follow-up, n=7): 34.3 (13.9) mL
- Prostate Volume, Change from Baseline, mean (SD) (prostate volume; 32 mg, Month 6 follow-up, n=7): −11.6 (5.1) mL
- Prostate Volume, Percentage Change from Baseline, mean (SD) (prostate volume; 32 mg, Month 6 follow-up, n=7): −25.6 (8.0) %
- Mean (SD) Prostate Volume (prostate volume; 64 mg, Day 42, N=13): 30.6 (10.5) mL
- Prostate Volume, Change from Baseline, mean (SD) (prostate volume; 64 mg, Day 42, N=13): −8.2 (10.2) mL
- Prostate Volume, Percentage Change from Baseline, mean (SD) (prostate volume; 64 mg, Day 42, N=13): −19.7 (23.2) %
- Mean (SD) Prostate Volume (prostate volume; 64 mg, Month 6 follow-up, n=4): 29.0 (3.4) mL
- Prostate Volume, Change from Baseline, mean (SD) (prostate volume; 64 mg, Month 6 follow-up, n=4): −9.7 (10.4) mL
- Prostate Volume, Percentage Change from Baseline, mean (SD) (prostate volume; 64 mg, Month 6 follow-up, n=4): −21.5 (20.6) %
- Mean (SD) Prostate Volume (prostate volume; 16+16 mg, Day 42, N=13): 34.5 (11.0) mL
- Prostate Volume, Change from Baseline, mean (SD) (prostate volume; 16+16 mg, Day 42, N=13): −7.5 (7.7) mL
- Prostate Volume, Percentage Change from Baseline, mean (SD) (prostate volume; 16+16 mg, Day 42, N=13): −17.0 (16.7) %
- Mean (SD) Prostate Volume (prostate volume; [6]): 29.6 (10.4) mL
- Prostate Volume, Change from Baseline, mean (SD) (prostate volume; [6]): −11.2 (4.4) mL
- Prostate Volume, Percentage Change from Baseline, mean (SD) (prostate volume; [6]): −27.8 (8.7) %
- Mean (SD) Prostate Volume (prostate volume; 32+32 mg, Day 42, N=12): 28.7 (8.2) mL
- Prostate Volume, Change from Baseline, mean (SD) (prostate volume; 32+32 mg, Day 42, N=12): −9.4 (9.3) mL
- Prostate Volume, Percentage Change from Baseline, mean (SD) (prostate volume; 32+32 mg, Day 42, N=12): −23.5 (20.9) %
- Mean (SD) Prostate Volume (prostate volume; [7]): 26.5 (6.0) mL
- Prostate Volume, Change from Baseline, mean (SD) (prostate volume; [7]): −10.6 (8.8) mL
- Prostate Volume, Percentage Change from Baseline, mean (SD) (prostate volume; [7]): −27.1 (17.3) %
